Values quoted from earlier work, collected in publication PMC2211560 (PLoS Medicine, 2008).
Read-outs that look alike come from different tables or passages of the source.

How the values were obtained:
[1] = cited from earlier work
[2] = rats and monkeys; daily for 14 days or daily for 5 days IV every 2 weeks, 4 courses; cited from earlier work
[3] = monkeys, cited from earlier work
[4] = tested on: cytochrome P450 3A (CYP3A); conditions: human liver microsomal fractions; cited from earlier work
[5] = rats, cited from earlier work
[6] = in vitro or in vivo; cited from earlier work
several tumor types = conditions: Phase I trials; renal cell cancer, soft tissue sarcoma, cervical, endometrial, non-small cell cancer, non-Hodgkins lymphoma; cited from earlier work
[7] = cited from earlier work; remark: listed apart in the source
[8] = doses of 0.1-2.5 mg/kg, printed jointly for monkeys and rats

Q: Which results are given for `CO[C@H]1C[C@@H]2CC[C@@H](C)[C@@](O)(O2)C(=O)C(=O)N2CCCC[C@H]2C(=O)O[C@H]([C@H](C)C[C@@H]2CC[C@@H](OC(=O)C(C)(CO)CO)[C@H](OC)C2)CC(=O)[C@H](C)/C=C(\C)[C@@H](O)[C@@H](OC)C(=O)[C@H](C)C[C@H](C)/C=C/C=C/C=C/1C` [CCI-779]?
A: blood/plasma (B/P) ratio, mean (range) ([1]; 0.75 to 3.12 mg/m^2 daily x 5 schedule): 9.8 (2.4-20); mean exposure ratio (rapamycin to CCI-779) ([1]; blood, after CCI-779): ~3.2; half-life ([1]; weekly dosing): 19.3 h; half-life, range ([1]; weekly dosing): 13 to 39 h; mean clearance ([1]; weekly dosing): 22 L/h; volume of distribution at steady state ([1]; weekly dosing): 306 L; life-threatening toxicity [2]: No life-threatening toxicity was observed; elimination half life [3, 8]: 8 to 16 h; volume of distribution (Vdss) [3]: 1 to 5 L/kg; metabolising enzyme [4]: primarily metabolized by cytochrome P450 3A (CYP3A); elimination half life [5, 8]: 8 to 16 h; volume of distribution (Vdss) [5]: 13 to 19 L/kg; mutagenic effects [6]: no mutagenic effects; Tumor regression (several tumor types): less than 50%; MTD ([7]; daily x 5 every 2 weeks, heavily pretreated patients): 15 mg/m^2; MTD ([7]; daily x 5 every 2 weeks, minimally pretreated patients): 19.1 mg/m^2; MTD ([7]; weekly schedule, doses 7.5 mg/m^2 to 220 mg/m^2): has not yet been reached
